These results are taken from patent publication US20170152263A1, “Substituted Indazole Compounds as IRAK4 Inhibitors” (AURIGENE DISCOVERY TECHNOLOGIES LIMITED, priority 2014, published 2017).

In this assay the target is T1, recombinant IRAK-4 kinase (Homo sapiens, UniProt Q9NWZ3).
T1 construct: purchased Millipore, USA
T1 sequence (Q9NWZ3 1-460): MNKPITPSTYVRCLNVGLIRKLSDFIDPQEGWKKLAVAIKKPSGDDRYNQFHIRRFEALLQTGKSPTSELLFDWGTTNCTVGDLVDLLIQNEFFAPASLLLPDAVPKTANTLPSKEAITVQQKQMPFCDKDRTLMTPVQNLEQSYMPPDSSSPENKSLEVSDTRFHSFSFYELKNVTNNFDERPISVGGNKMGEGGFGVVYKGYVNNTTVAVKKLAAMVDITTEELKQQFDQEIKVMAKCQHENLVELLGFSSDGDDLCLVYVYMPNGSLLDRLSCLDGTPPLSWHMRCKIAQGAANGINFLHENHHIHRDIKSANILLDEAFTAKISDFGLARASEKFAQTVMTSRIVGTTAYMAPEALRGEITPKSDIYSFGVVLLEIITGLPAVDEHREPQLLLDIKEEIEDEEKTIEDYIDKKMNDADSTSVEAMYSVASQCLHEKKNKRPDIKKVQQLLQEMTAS
Description: IRAK-4 biochemical assay (TR-FRET). Conditions: IRAK-4 enzyme, 20 μM ATP; for inhibition at 1 µM: compound at 1 μM; for IC50: dose response; for inhibition at 0.1 µM: compound at 0.1 μM. On the procedure: Compounds were tested for their potential to inhibit IRAK-4 enzyme in a TR-FRET assay using recombinant IRAK-4 kinase from Millipore, USA. The assay buffer was 50 mM Tris-HCl pH 7.5, 20 mM MgCl2, 1 mM EGTA, 2 mM DTT, 3 mM MnCl2 and 0.01% Tween 20.5 ng of IRAK-4 kinase was used for the assay. After pre-incubation of enzyme with test compound for 30 minutes at room temperature, a substrate mixture containing 100 nM Biotin Histone H3 (Millipore, USA) and 20 μM ATP (Sigma, USA) was added and the reaction was incubated for 30 min. Post incubation, the reaction was stopped by the addition of stop mix containing 40 mM EDTA, 1 nM of Europium-Anti-Phospho-Histone H3 (Ser10) antibody (Perkin Elmer, USA) and 20 nM SureLight Allophycocyanin-Streptavidin (Perkin Elmer, USA). The fluorescence emission at 615 nm and 665 nm were measured at an excitation of 340 nm and the percent inhibition was estimated from the ratio of the fluorescence intensities [(F665/F615)×10000]. […] The IC50 values were estimated by fitting the dose-response data to sigmoidal dose response (variable slope), curve fitting program using Graphpad Prism software Version 6.01.
(In general: TR-FRET usually uses a lanthanide donor and a delayed reading to cut background.)

Where a name gives a salt, the structure may show the parent alone. A value given as a limit tells only on which side of the number the result lay.

On to `Cc1cc(-c2nc(C(=O)Nc3cc4c(cnn4C)cc3N3CCCCC3)co2)ccn1` [Example 1, N-(1-methyl-5-(piperidin-1-yl)-1H-indazol-6-yl)-2-(2-methylpyridin-4-yl)oxazole-4-carboxamide hydrochloride], for which the inhibition at 1 µM was found to be 96% and the half-maximal inhibitory concentration (IC50) was less than 0.1 µM.
On to `Cn1cc2cc(N3CCCCC3)c(NC(=O)c3cccc(N4CC[C@H](N)C4)n3)cc2n1` [Example 7, (S)-6-(3-aminopyrrolidin-1-yl)—N—(2-methyl-5-(piperidin-1-yl)-2H-indazol-6-yl)picolinamide], for which the inhibition at 0.1 µM was determined as 93%, the inhibition at 1 µM worked out at 83% and the IC50 is greater than 0.25 µM.
As to `Cc1cc(-c2nc(C)c(C(=O)Nc3cc4c(cnn4C)cc3N3CC[C@H](O)C3)o2)ccn1` [Example 36, hydrochloride], the inhibition at 0.1 µM worked out at 2% and the inhibition at 1 µM came out at 1%.
Consider `CC(=O)Nc1cc(-c2nc(C(=O)Nc3cc4c(cnn4C)cc3N3CC[C@H](O)C3)co2)ccn1` [Example 15], for which the inhibition at 0.1 µM was 83%, the inhibition at 1 µM was 99% and the concentration for half-maximal inhibition (IC50) was less than 0.1 µM.
The matching figures for `Cc1cc(-c2nc(C(=O)Nc3cc4c(cnn4C)cc3N3CC[C@@H](O)C3)co2)ccn1` [Example 22, (R)—N—(5-(3-hydroxypyrrolidin-1-yl)-1-methyl-1H-indazol-6-yl)-2-(2-methylpyridin-4-yl)oxazole-4-carboxamide]: 89%, 96% and less than 0.1 µM.
Taken in the same sequence, the figures for `Cc1cc(-c2nc(C(=O)Nc3cc4[nH]ncc4cc3N3CC[C@H](O)C3)co2)ccn1` [Example 27, (S)—N—(5-(3-hydroxypyrrolidin-1-yl)-1H-indazol-6-yl)-2-(2-methylpyridin-4-yl)oxazole-4-carboxamide] were 88%, 97% and greater than 0.25 µM.
Turning to `Cn1ncc2cc(N3CC[C@H](O)C3)c(NC(=O)c3cnn4cccnc34)cc21` [Example 48, (S)—N—(5-(3-hydroxypyrrolidin-1-yl)-1-methyl-1H-indazol-6-yl)pyrazolo[1,5-a]pyrimidine-3-carboxamide hydrochloride], the inhibition at 0.1 µM was 25%, the inhibition at 1 µM amounted to 80% and the IC50 is greater than 0.25 µM.
Regarding `Cc1cc(-c2nc(C(=O)Nc3cc4nn(C)cc4cc3N3CCCC(F)C3)co2)ccn1` (centres unmarked) [Example 14, N—(5-(3-fluoropiperidin-1-yl)-2-methyl-2H-indazol-6-yl)-2-(2-methylpyridin-4-yl)oxazole-4-carboxamide], the inhibition at 0.1 µM worked out at 94%, the inhibition at 1 µM was determined as 96% and the IC50 was less than 0.1 µM.
On to `Cc1nn(C)c2cc(NC(=O)c3coc(-c4ccnc(N)c4)n3)c(N3CCC(CO)CC3)cc12` [Example 43, 2-(2-aminopyridin-4-yl)—N—(5-(4-(hydroxymethyl)piperidin-1-yl)-1,3-dimethyl-1H-indazol-6-yl)oxazole-4-carboxamide hydrochloride], for which the inhibition at 0.1 µM is 0% and the inhibition at 1 µM came out at 15%.
Turning to `Cc1cc(-c2nc(C(=O)Nc3cc4c(cnn4C)cc3N3CC[C@H](O)C3)co2)cc(C)n1` [Example 21, (S)-2-(2,6-dimethylpyridin-4-yl)—N—(5-(3-hydroxypyrrolidin-1-yl)-1-methyl-1H-indazol-6-yl)oxazole-4-carboxamide], the inhibition at 0.1 µM turned out to be 41%, the inhibition at 1 µM was 84% and the IC50 was 0.1 to 0.25 µM.
Consider `Cc1cc(-c2nc(C(=O)Nc3cc4c(cnn4C)cc3N3CCC(O)CC3)co2)ccn1` [Example 17, N—(5-(4-hydroxypiperidin-1-yl)-1-methyl-1H-indazol-6-yl)-2-(2-methylpyridin-4-yl)oxazole-4-carboxamide], for which the inhibition at 0.1 µM was found to be 93%, the inhibition at 1 µM is 95% and the half-inhibitory concentration (IC50) was less than 0.1 µM.
For the compound `Cn1ncc2cc(N3CC[C@@H](O)C3)c(NC(=O)c3coc(-c4cccnc4N)n3)cc21` [Example 29, (R)-2-(2-aminopyridin-3-yl)—N—(5-(3-hydroxypyrrolidin-1-yl)-1-methyl-1H-indazol-6-yl)oxazole-4-carboxamide hydrochloride], the inhibition at 0.1 µM was found to be 14%, the inhibition at 1 µM was found to be 95% and the IC50 was less than 0.1 µM.
The matching figures for `Cc1cc(-c2ncc(C(=O)Nc3cc4c(cnn4C)cc3N3CC[C@H](O)C3)o2)ccn1` [Example 39, (S)—N—(5-(3-hydroxypyrrolidin-1-yl)-1-methyl-1H-indazol-6-yl)-2-(2-methylpyridin-4-yl)oxazole-5-carboxamide]: 49%, 92% and 0.1 to 0.25 µM.
Taken in the same sequence, the figures for `Cn1ncc2cc(N3CC[C@H](O)C3)c(NC(=O)c3coc(-c4ccnc(N)c4)n3)cc21` [Example 18, (S)-2-(2-aminopyridin-4-yl)—N—(5-(3-hydroxypyrrolidin-1-yl)-1-methyl-1H-indazol-6-yl)oxazole-4-carboxamide] were 94%, 96% and less than 0.1 µM.
Consider `Cc1cc(-c2nc(C(=O)Nc3cc4c(cnn4C)cc3N3CCCC(O)C3)co2)ccn1` (centres unmarked) [Example 12, N—(5-(3-hydroxypiperidin-1-yl)-1-methyl-1H-indazol-6-yl)-2-(2-methylpyridin-4-yl)oxazole-4-carboxamide hydrochloride], for which the inhibition at 0.1 µM turned out to be 94% and the IC50 was less than 0.1 µM.
For the compound `Cn1ncc2cc(N3CC[C@@H](O)C3)c(NC(=O)c3cccc(N4CC[C@H](O)C4)n3)cc21` [Example 24, 6-((S)-3-hydroxypyrrolidin-1-yl)—N—(5-((R)-3-hydroxypyrrolidin-1-yl)-1-methyl-1H-indazol-6-yl)picolinamide], the inhibition at 0.1 µM was 33%, the inhibition at 1 µM worked out at 80% and the half-maximal inhibitory concentration (IC50) lay in the range of 0.1 to 0.25 µM.
Taken in the same sequence, the figures for `Cn1cc2cc(N3CCC(O)CC3)c(NC(=O)c3cnn4cccnc34)cc2n1` [Example 47, N—(5-(4-hydroxypiperidin-1-yl)-2-methyl-2H-indazol-6-yl)pyrazolo[1,5-a]pyrimidine-3-carboxamide hydrochloride] were 34%, 89% and 0.1 to 0.25 µM.
Taken in the same sequence, the figures for `Cn1ncc2cc(N3CC[C@H](O)C3)c(NC(=O)c3coc(-c4ccnc5[nH]ccc45)n3)cc21` [Example 26, (S)—N—(5-(3-hydroxypyrrolidin-1-yl)-1-methyl-1H-indazol-6-yl)-2-(1H-pyrrolo[2,3-b]pyridin-4-yl)oxazole-4-carboxamide] were 96%, 92% and less than 0.1 µM.
With `Cn1ncc2cc(N3CCCCC3)c(NC(=O)c3coc(N4CC[C@H](O)C4)n3)cc21` [Example 10, (S)-2-(3-hydroxypyrrolidin-1-yl)—N—(1-methyl-5-(piperidin-1-yl)-1H-indazol-6-yl)oxazole-4-carboxamide], the inhibition at 0.1 µM came to 95%, the inhibition at 1 µM worked out at 91% and the IC50 is less than 0.1 µM.
With `Cc1cc(-c2nc(C(=O)Nc3cc4c(cnn4C)cc3N3CCC(F)CC3)co2)ccn1` [Example 19, N—(5-(4-fluoropiperidin-1-yl)-1-methyl-1H-indazol-6-yl)-2-(2-methylpyridin-4-yl)oxazole-4-carboxamide], the inhibition at 0.1 µM turned out to be 94%, the inhibition at 1 µM is 97% and the concentration for half-maximal inhibition (IC50) was less than 0.1 µM.
Taken in the same sequence, the figures for `Cc1cc(-c2nc(C(=O)Nc3cc4c(cnn4C)cc3N3CCCC(F)C3)co2)ccn1` (centres unmarked) [Example 16, N—(5-(3-fluoropiperidin-1-yl)-1-methyl-1H-indazol-6-yl)-2-(2-methylpyridin-4-yl)oxazole-4-carboxamide] were 94%, 99% and less than 0.1 µM.
The matching figures for `CCc1cc(-c2nc(C(=O)Nc3cc4c(cnn4C)cc3N3CC[C@H](O)C3)co2)ccn1` [Example 42, (S)-2-(2-ethylpyridin-4-yl)—N—(5-(3-hydroxypyrrolidin-1-yl)-1-methyl-1H-indazol-6-yl)oxazole-4-carboxamide hydrochloride]: 83%, 97% and less than 0.1 µM.
Taken in the same sequence, the figures for `Cn1cc2cc(N3CCCCC3)c(NC(=O)c3coc(N4CC[C@H](N)C4)n3)cc2n1` [Example 5, (S)-2-(3-aminopyrrolidin-1-yl)—N—(2-methyl-5-(piperidin-1-yl)-2H-indazol-6-yl)oxazole-4-carboxamide] were 95%, 82% and greater than 0.25 µM.

What is called inhibition is the relative decrease from the control value, in per cent. In general, IC50 refers to the concentration that gives 50% inhibition.
